Measured values published in patent US8039532B2, “Heterocyclic compound, ultraviolet absorbent and composition containing the same” (Fujifilm Corporation, priority 2007, dated 2011).

Tests used:
Assay type in all cases: physicochemical
[1] = Light fastness of ethyl acetate solutions under xenon lamp irradiation (Example 39); settings: ethyl acetate solution, xenon lamp with UV filter removed, 170,000 lux, one week; transmittance at maximum absorption wavelength
Protocol: Was dissolved 5 mg of the exemplified compound (1) in 100 mL of ethyl acetate and then the resulting solution was diluted with ethyl acetate so that absorbance became the range of from 0.95 to 1.05. Similarly, sample solutions of Exemplified Compounds (2), (11), (12), (24), (81) and (82) and comparative compounds A and B, respectively, were prepared. The absorbance of each sample solution was determined in a 1 cm quartz cell by using Spectrophotometer UV-3600 (product name) manufactured by Shimadzu Corporation. The cell containing the sample solution was photoirradiated by a xenon lamp with its UV filter removed at an illuminance of 170,000 lux, and the amount of each ultraviolet absorbent remaining after irradiation for one week was determined. The residual amount was calculated according to the following Formula: Residual amount (%)=100×(100−Transmittance after irradiation)/(100−Transmittance before irradiation)
The transmittance is a value determined at the maximum absorption wavelength of each compound.

[2] = UV spectrum of sample solutions in ethyl acetate (Example 38); settings: ethyl acetate solution, 1 cm quartz cell
Protocol: The absorption maximum wavelength and the half width specified in the present invention can be determined easily by a skilled person in the art. The measuring methods are described, for example, in Chemical Society of Japan Ed., “Experimental Chemistry Lecture, Chapter 7, Spectroscopy II”, 4th Ed., (Maruzen, 1992), p. 180 to 186. Specifically, they are determined by dissolving a sample in a suitable solvent and measuring the spectrum in a spectrophotometer by using two quartz or glass cells for the sample and control. For example, the solvent for use is required to be capable of dissolving the sample, have no absorption in the measurement wavelength range, have smaller interaction with the solute molecule, and have relatively low volatility. Any solvent may be used, as long as it satisfies the conditions above. In the present invention, the measurement is made by using ethyl acetate (EtOAc) as the solvent.
The absorption maximum wavelength and the half width of the dyes in the present invention are determined by preparing a solution in ethyl acetate as the solvent at a concentration of approximately 5×10^−5 mol·dm^−3 and by measurement while using a quartz cell having an optical path length of 10 mm.
The spectral half width is described, for example, in Chemical Society of Japan Ed., “Experimental Chemistry Lecture, Chapter 3 Basic Operation III”, 4th Ed., (Maruzen, 1991), p. 154. The half width is described in the literature above by using wave number as abscissa, but the half width is plotted against wavelength in the present invention and thus, the unit of the half value width is nm. Specifically, it is defined as the width of the absorption band at an absorbance of ½ of that at the absorption maximum wavelength and used as an indicator of the absorption spectral shape.
One mg of the Exemplified Compound (1) was dissolved in 100 ml of ethyl acetate, to give a sample solution. Similarly, sample solutions of Exemplified Compounds (2), (11), (12), (24), (81), (82), (87) and (88), respectively, were prepared. In addition, two mg of the comparative compound 1 was dissolved in 100 ml of ethyl acetate, to give a sample solution. Similarly, sample solutions of the comparative compounds 2 (the exemplified compound VIII described in JP-B-49-11155), 11 and 12, respectively, were also prepared. The UV spectrum of each sample solution was determined in a 1 cm quartz cell by using Spectrophotometer UV-3600 (product name) manufactured by Shimadzu Corporation. Based on the thus-obtained spectrum chart, were calculated the maximum absorption wavelength, the molar extinction coefficient (ε) at the maximum absorption wavelength and the half width (a width of absorption band corresponding to a half extinction at the maximum absorption wavelength).

[3] = Degree of coloring of UV agent-containing polyethylene terephthalate films (Example 43); parameters: key to Colored (visual): ∘: Not colored; Δ: Slightly colored; x: Distinctly colored; settings: PET film 50 μm; for absorbance at 420 nm / absorbance at 440 nm / absorbance at 460 nm: quantity giving 1% at 400 nm; for Colored (visual): visual examination; for absorbance at 400 nm: quantity adjusted so that value at 400 nm became 1%
Protocol: To 15 g of polyethylene terephthalate, the exemplified compounds (81) and (82) were added, respectively, in a quantity such that absorbance at 400 nm became 1% at the time of forming a film with a thickness of 50 μm. After fusion mixing at 265° C., UV agent-containing polymer films (401) and (402) were prepared by cooling and stretching. Further, UV agent-containing polymer films (403) and (404) were prepared by mixing and thin film-making in the same manner as the above films, except that a comparative compound Za and the abovementioned comparative compound 12 were used in place of the exemplified compounds.
A degree of coloring in each of the prepared samples was evaluated by measuring absorbance of the sample at 420 nm 440 nm and 460 nm, and also by examining them visually.

Row | SMILES | Residual amount (%) [1] [%] | Half width (nm) [2] [nm] | ε, molar extinction coefficient at the maximum absorption wavelength [2] | λmax (nm), maximum absorption wavelength [2] [nm] | coloring of the film (in words) [3] | absorbance at 420 nm [3] [%] | absorbance at 440 nm [3] [%] | absorbance at 460 nm [3] [%] | Colored (visual) [3] | absorbance at 400 nm [3] [%]
1 | COc1ccc(C(=O)c2ccc(OC)cc2O)c(O)c1 [Comparative compound A] | 76 |  |  |  |  |  |  |  |  | 
2 | CCCCC(CC)COc1ccc(OCC(CC)CCCC)c2c1SC(=C(C#N)C(=O)OCC)S2 (centres unmarked) [Comparative compound 12] |  | 39 | 28000 | 360 | coloring was also observed | 65 | 72 | 78 | Δ to x | 1
3 | COc1ccc(C(=O)CC(=O)c2ccc(C(C)(C)C)cc2)cc1 [Comparative compound B] | 38 |  |  |  |  |  |  |  |  | 
4 | CC(C)(C)CC(C)(C)c1cc(Cc2cc(C(C)(C)CC(C)(C)C)cc(-n3nc4ccccc4n3)c2O)c(O)c(-n2nc3ccccc3n2)c1 [Za] |  |  |  |  | more colored yellow | 45 | 65 | 85 | x | 1
5 | CCCCC(CC)C(=O)Oc1ccc(OC(=O)C(CC)CCCC)c2c1SC(=C(C#N)C#N)S2 (centres unmarked) [Comparative compound 1] |  | 45 | 24000 | 369 |  |  |  |  |  | 
6 | CCCCCCCCCCCCOc1ccc(OCCCCCCCCCCCC)c2c1SC(=C(C#N)C#N)S2 [Comparative compound 2] |  | 46 | 23000 | 363 |  |  |  |  |  | 
